Several values for one entry are separate records, joined by “and”; a condition that tells them apart may be missing. Equal values may be shown once. Entries after “also recorded” stand apart in the source; their conditions may differ.
Tests used:
C. elegans [1] = experiment: Worm lifespan analysis; assay type: in vivo; conditions: for variation compared to control (%): vs N2 + water
Description: Worm Lifespan Analysis Lifespan tests were performed as described in Mouchiroud et al (L. Mouchiroud et al., Pyruvate imbalance mediates metabolic reprogramming and mimics lifespan extension by dietary restriction in Caenorhabditis elegans. Aging Cell 10, 39 (2011)). Briefly, 60-100 animals were used per conditions and scored every other day. All lifespan experiments were performed at 20° C. […] Animals were exposed to compounds during the full life from eggs until death. To ensure a permanent exposure to the compound, plates were changed twice a week. All the compounds used in this study were dissolved in a water stock solution.

C. elegans [2] = experiment: Worm fluorescence analysis (endogenous gut fluorescence/lipofuscin, sod-3::GFP); conditions: in vivo
Description: Fluorescence Analysis Quantification of GFP expression and endogenous gut fluorescence were carried out according to the protocol as described in Yamamoto et al. (Yamamoto et al., NCoR1 is a conserved physiological modulator of muscle mass and oxidative function. Cell 147, 827 (2011)). Briefly, GFP was monitored in day 1 or day 3 adults. Fluorimetric assays were performed using a Victor X4 multilabel plate reader (Perkin-Elmer Life Science). Eighty worms were picked at random (20 worms per well of a black-walled 96-well plate) and each well was read four times and averaged. Each experiment was repeated at least three times. Endogenous gut fluorescence was monitored at day 1, day 4 and day 8 by following the same protocol as described before.

C. elegans [3] = experiment: Worm respiration assay (Seahorse XF24); assay type: in vivo; conditions: day 3 adult worms
Description: Worm Respiration Assays Oxygen consumption was measured using the Seahorse XF24 equipment (Seahorse Bioscience Inc., North Billerica, Mass.) as described in Yamamoto et al. Typically, 200 animals per conditions were recovered from NGM plates with M9 medium, washed three times in 2 mLM9 to eliminate residual bacteria, and resuspended in 500 μL M9 medium. Worms were transferred in 24-well standard Seahorse plates (#100777-004) (50 worms per well) and oxygen consumption was measured 6 times. Respiration rates were normalized to the number of worms in each individual well. NAD measurement by HPLC For NAD+ quantification, approximately 1000 worms were collected in M9 buffer, washed five times to remove residual bacteria and flash-frozen in liquid nitrogen and stored at −80° C. until analysis. Extraction was started by adding 250 μl of 1.6M perchloric acid on frozen samples, followed by extensive homogenization in a Qiagen tissuelyser, and centrifugation at 20.000 g for 15 min. The supernatant was recovered and neutralized with a 3M potassium carbonate solution. After centrifugation, 100 μl of supernatant was filtered and used for NAD measurement using an HPLC system (Agilent) with a Supelco LC-18-T column (Sigma), as described in Yoshino et al. (Yoshino, K. F. Mills, M. J. Yoon, S. Imai, Nicotinamide Mononucleotide, a Key NAD(+) Intermediate, Treats the Pathophysiology of Diet- and Age-Induced Diabetes in Mice. Cell Metab 14, 528 (2011)).

C. elegans [4] = experiment: Quantitative RT-PCR in worms; assay type: in vivo
Description: mRNA and mtDNA Analysis. Total RNA was prepared using TRIzol (Invitrogen) according to the manufacturer's instructions. RNA was treated with DNase, and 2 μg of RNA was used for reverse transcription (RT). cDNA was purified on QIAquick PCR cleanup columns (Qiagen, Valencia, Calif., USA). 50× diluted cDNA was used for RT-quantitative PCR (RT-VCR) VCR) reactions (Bai et al., 2007). The RT-qPCR reactions were performed using the Light-Cycler system (Roche Applied Science) and a qPCR Supermix (Qiagen) with the primers for mice summarized in Table 1 and 4, and with the primers for worms summarized on Table 7. mtDNA quantification was performed as described (Lagouge et al., 2006) with the primers indicated in Table 2 and 5.

C. elegans [5] = experiment: Confocal microscopy of mitochondria in body wall muscle (pmyo-3::mito::GFP reporter); conditions: in vivo
Description: Confocal Microscopy and Image Processing Worms were immobilized with 6 mM solution of tetramisole hydrochloride (Sigma, Buchs, Switzerland) in M9 and mounted on 6% agarose pads on glass slides. Images of worms were acquired using Zeiss LSM 700 Upright confocal microscope (Carl Zeiss AG, Oberkochen, Germany) under non-saturating exposure conditions. All the snapshots were taken from the same part of C. elegans: muscles from the upper part of the worm, excluding the regions of oesophagus and vulva. For each condition multiple worms were observed and imaged. Image processing was performed with the Fiji software. One of the critical issues during the imaging process was the position of the worm, as it influences the level of background. For the uniformity of the represented images, contrast and brightness were adjusted in order, to eliminate the undesirable background signal. Neither of these manipulations was affecting the mitochondrial shape. Tracing of the mitochondrial network contour was done by the use of Gaussian blur filter followed by the application of Laplacian operator.

C. elegans [6] = experiment: MitoSox staining of worms (mitochondrial superoxide); assay type: in vivo; conditions: day 3
Description: Briefly, a population of 100 worms was recovered in 1 ml of M9 buffer, washed three times to remove residual bacteria, and resuspended in 200 μl of 1:200 MitoSox stock solution (initial stock solution was dissolved at 1 mM in DMSO). After 20 minutes of treatment, worms were washed five times in 1 ml of M9 buffer to eliminate the MitoSox reagent, and then transferred in a black-walled 96-well plate for reading. Fluorescence produced by the Mitosox reaction was measured as described before.

For O=C(c1cc(Cc2n[nH]c(=O)c3ccccc23)ccc1F)N1CCN(C(=O)C2CC2)CC1 [AZD2281], the lifespan extension (C. elegans [1]; 100 nM (FIG. 34B)) was 22.9%, the “mean lifespan ± SE” value (C. elegans [1]; N2, 100 nM, listed as AZD) was 22.8 ± 0.9 days and 24.7 ± 0.669 days and 26.5 ± 0.77 days and 24.5 ± 0.94 days and 24.7 ± 0.55 days and the “mean lifespan ± SE” value (C. elegans [1]; N2, 500 nM) was 22.2 ± 1.15 days. For the same compound, the “variation compared to control (%)” value (C. elegans [1]; N2, 500 nM) was “+14.4%”, the “mean lifespan ± SE” value (C. elegans [1]; N2, 1000 nM) was 21.2 ± 0.96 days and the “variation compared to control (%)” value (C. elegans [1]; N2, 1000 nM) was “+9.2%”. For the same compound, the “lifespan in daf-16 mutant worms” value (C. elegans [1]; daf-16(mu86) mutant worms) was “failed to increase lifespan; also recorded: fails to extend lifespan”, the “mean lifespan ± SE” value (C. elegans [1]; daf-16(mu86), 100 nM) was 18.2 ± 0.76 days and the “variation compared to control (%)” value (C. elegans [1]; daf-16(mu86), 100 nM) was −16.1%. The “mean lifespan ± SE” value (C. elegans [1]; pme-1(ok988), 100 nM) was 26.1 ± 0.78 days, the “variation compared to control (%)” value (C. elegans [1]; pme-1(ok988), 100 nM) was “+31.2%” and the “lifespan of the pme-1 mutant” value (C. elegans [1]; pme-1 mutant worms) was “not further extended; also recorded: pme-1-dependent manner”. The “lifespan in sir-2.1(ok434) mutant / sir-2.1 dependence” value (C. elegans [1]; sir-2.1(ok434) mutant worms) was “lost the AZD2281-induced longevity; also recorded: does not extend lifespan”, the “mean lifespan ± SE” value (C. elegans [1]; sir-2.1(ok434), 100 nM) was 21.9 ± 0.528 days and the “variation compared to control (%)” value (C. elegans [1]; sir-2.1(ok434), 100 nM) was “+6.7%”. For the same compound, the “accumulation of the aging pigment lipofuscin” value (C. elegans [2]) was “reduced lipofuscin accumulation; also recorded: decreased the accumulation of the aging pigment lipofuscin”, the “sod-3::GFP” value (C. elegans [2]) was “increase in sod-3::GFP” and the “oxygen consumption (respiration)” value (C. elegans [3]) was “robustly increased respiration; also recorded: Oxygen consumption was increased”. The “expression of genes of mitochondrial oxidative metabolism (cts-1, cox-4)” value (C. elegans [4]; day 3 of adulthood) was “increased expression of citrate synthase (cts-1) and cytochrome c oxidase subunit 4 (cox-4); also recorded: increased expression of genes involved in mitochondrial oxidative metabolism”, the daf-16 expression (C. elegans [4]; in vivo) was “did not change expression of daf-16” and the sod-3 expression (C. elegans [4]; in vivo) was “marked induction”. The “mitochondrial content in body wall muscle” value (C. elegans [5]) was “more dense mitochondrial network” and the “ROS production (mitoSOX)” value (C. elegans [6]) was “ROS production was decreased”.

— patent publication US10709724B2, “Methods of treating mitochondrial dysfunction” (Ecole Polytechnique Federale de Lausanne (EPFL), priority 2011, dated 2020)
